Common to all, as to assay type: physicochemical
Series [1] in a line: In vitro release of AMP from PEG2000-containing PU rods. Conditions: pH 4.2 acetate buffer; for release profile: 37° C. On the procedure:
Incorporation of AMP in PU matrix: Homogenous distribution of AMP and PEG2000 in the PU matrix was achieved by solvent casting. AMP (500 mg), PEG2000 (500 mg (5% w/w), 1000 mg (10% w/w) and 1500 mg (15% w/w)) and PU (added to make the total weight of PEG+AMP+PU mixture to 10 g) were dissolved in 75:25 mixture of dichloromethane and tetrahydrofuran. About 75% of the solvent was removed under reduced pressure and the viscous solution of PU, AMP and PEG2000 was poured into a silanized crystallization flask which was further dried under air at a flow rate of 4 L/min for 2-3 days. The […] incorporated PU films thus obtained were cut into small pieces and further dried under high vacuum until constant weight was achieved.
Extrusion of PEG2000 and AMP loaded solid cross-sectional PU: Extrusion was conducted at 165-175° C. into solid cross-sectional rods using a lab scale extruder (CSI Max Mixing Extruder CS-194A, Custom Scientific Instrument Inc., Easton, Pa.). The extruded and molten polymer output from the extruder was immediately fed to an aluminum mold (4.3 mm diameter, 25 cm length, previously spray coated with mold release agent) maintained at 120° C. The mold was cooled to below 80° C. and opened carefully without stretching the PU rod. The release profile of AMP was measured from PU rods using pH 4.2 25 mM acetate buffer (osmolarity adjusted to 310 mOsm/kg using NaCl, 0.02% sodium azide) at 37° C. and 60 rpm. About 2 cm length segments were cut from the solid cross-sectional AMP loaded PU rods. The dimensions (length and diameter) and weight of each segment were recorded. The sink was replaced with fresh buffer every 24±0.5 h for 10 days. HPLC analyses were performed and the cumulative release was calculated by integrating the area under the curve using Kaleidagraph software (Synergy Software, Reading, Pa.). The release study for each loading was performed on triplicate samples. […] A burst release is obtained in all PEG-PU compositions that is proportional to the PEG concentration.

The nature of series [2]: Release of Tenofovir from Tecoflex EG-93A matrices with PEG2000 with and without salts. Conditions: 5% w/w PEG. On the procedure: Incorporation of Tenofovir and PEG2000 and salts in EG-93A matrices: Homogenous distribution of Tenofovir, PEG2000 with and without salts in Tecoflex EG-93A_matrices were achieved by solvent casting. Tenofovir (250 mg), PEG2000 (250 mg (5% w/w)) and salts (NaCl=50 mg (1% w/w) or 125 mg (2.5% w/w) or CaCl2=125 mg (2.5% w/w)) were dispersed in 75:25 mixture of dichloromethane and tetrahydrofuran followed by sonication for 30 minutes. About 75% of the solvent was removed under reduced pressure and the viscous solution was poured into a silanized crystallization flask which was further dried under air at a flow rate of 4 L/min for 2-3 days. The Tenofovir incorporated polymer films thus obtained were cut into small pieces and further dried under high vacuum until constant weight was achieved. About 1.2 g of the polymer film pieces were taken in a 20 mL scintillation vial which was incubated at 210° C. for about 5-6 minutes to allow the polymer pieces to melt and fuse to form a continuous film in the bottom of the vial. Then 5 mL of sink (25 mM pH 4.2 buffer, osmolarity adjusted to 310 mOsm/kg with NaCl, and 0.02% sodium azide) was added. The sink was replaced with fresh buffer every 24±0.5 h for 15 days. HPLC analyses were performed and the cumulative release was calculated by integrating the area under the curve using Kaleidagraph software (Synergy Software, Reading, Pa.). […]

Series [3] can be described thus: Release of Tenofovir from Tecoflex EG-80A and EG-85A small rings with and without PEG2000. As to conditions: Tecoflex EG-80A and EG-85A matrices, 50 mg/g, 5% w/w PEG, pH 4.2 acetate buffer, 15 days. On the procedure:
Incorporation of Tenofovir and PEG2000 in Tecoflex EG-80A and EG-85A matrices: Homogenous distribution of Tenofovir and PEG2000 in Tecoflex EG-80A or EG-85A_matrices were achieved by solvent casting. Tenofovir (500 mg) with or without PEG2000 (500 mg) were dissolved in 75:25 mixture of dichloromethane and tetrahydrofuran. About 75% of the solvent was removed under reduced pressure and the viscous solution was poured into a silanized crystallization flask which was further dried under air at a flow rate of 4 L/min for 2-3 days. The Tenofovir incorporated polymer films thus obtained were cut into small pieces and further dried under high vacuum until constant weight was achieved.
Solid cross-sectional rods were obtained by extrusion of polymer films obtained in the above step at 155-165° C. using a lab scale extruder (CSI Max Mixing Extruder CS-194A, Custom Scientific Instrument Inc., Easton, Pa.). Small rings were fabricated by joining the ends of rods of approximately 6 cm in length. The release profile of Tenofovir was measured from Tenofovir loaded small rings using pH 4.2 25 mM acetate buffer (osmolarity adjusted to 310 mOsm/kg using NaCl, 0.02% sodium azide) at 37° C. and 60 rpm. […] HPLC analyses were performed and the cumulative release was calculated by integrating the area under the curve using Kaleidagraph software (Synergy Software, Reading, Pa.). […]

Each structure is given as a SMILES string.

With `Nc1ncnc2c1ncn2[C@@H]1O[C@H](COP(=O)(O)O)[C@@H](O)[C@H]1O` [AMP, Adenosine Monophosphate], the release profile result in series [1] (5% w/w PEG in PU) is recorded as “zero order”; in series [1] (10% w/w PEG in PU) it was “diffusion limited”; in series [1] (15% w/w PEG in PU), “diffusion limited”. Moreover, the “effect of PEG incorporation on release” value in series [1] (PEG-PU rods vs PU) is listed as “increases the overall amount of drug released per day”.

`C[C@H](Cn1cnc2c(N)ncnc21)OCP(=O)(O)O` [Tenofovir, ({[(2R)-1-(6-amino-9H-purin-9-yl)propan-2-yl]oxy}methyl)phosphonic acid]: the release profile result in series [2] (2.5 w/w CaCl2) and in series [2] (2.5 w/w NaCl) was “nearly zero-order release” in each case. In series [3], the “effect of PEG incorporation on release” value is listed as “increases the overall amount of drug released per day”.
